Experimental data: patent publication US20220184222A1, “BICYCLE TOXIN CONJUGATES AND USES THEREOF” (BicycleTx Limited, priority 2019, published 2022)
Starred links: 1 amine or outer side, 2 acyl side, 3 side chain; linkers in the order of their positions; H or OH if unused. Non-standard residues stand in square brackets, D forms with d. Residues, ends and D or L forms follow the SMILES beside them. *: point of attachment. Dolaproine = CO[C@@H]([C@@H]1CCCN1)[C@@H](C)C(=O)O; Dil = CC[C@H](C)[C@H](NC)[C@@H](CC(=O)O)OC; PABC = O=C(OCc1ccc(N[*:1])cc1)[*:2]; X1 = O=C(CCCC(=O)*)ON1C(=O)CCC1=O; X2 = C[C@@H](N*)[C@@H](O)c1ccccc1; Cit = NC(=O)NCCC[C@H](N)C(=O)O; NMeV = CN[C@H](C(=O)O)C(C)C

Experiments:
Assay type in all cases: in vivo, Mus musculus
CTG-2011 = assay: Champions TumorGraft NSCLC PDX efficacy, model CTG-2011
Description: (§1) Mice were implanted subcutaneously into the left flank with tumor fragments from one of the various models. After tumors grew to an average of 150-300 mm^3, mice were treated by IV administration Q7Dx4 (n=2) with vehicle or 3 mg/kg of BT5528. Effects on tumor growth were evaluated by measuring percent tumor growth inhibition (% TGI), and the number of complete responders (CR), partial responders (PR), and tumor-free survivors (TFS). Tolerability was assessed by body weight loss, lethality, and clinical signs of adverse treatment-related side effects. Tumor volumes and body weights were measured twice a week.
(§2) Dosing solutions of BT5528 […] were pre-formulated. These dosing solutions were stored at −80° C. in the dark. On each day of dosing, a frozen aliquot of each test agent was thawed, stored at 2-8° C. and used for dosing.
(§3) The animals used in this study are described below: • Species: Mus musculus • Strain: Athymic Nude-Foxn1^nu (immune-compromised) • Source: Envigo (Indianapolis, Ind., USA) • Number of animals per group: 2 • Age and sex: At least 6-8 weeks of age at start of dosing, female • Weight: At least 18 grams at start of dosing • Acclimation period: 3 days
(§4) Stock mice were implanted with tumor cells from Champions TumorGraft® models CTG-0160, CTG-0170, CTG-0178, CTG-0192, CTG-0363, CTG-0808, CTG-0838, CTG-0848, CTG-1212, CTG-1502, CTG-1535, CTG-2011, CTG-2393, CTG-2539 or CTG-2540. After the tumors reached 1000-1500 mm^3, they were harvested and the tumor fragments (approximately 5×5×5 mm^3) were implanted SC in the left flank of the female study mice. Each animal was implanted with a specific passage lot and documented. Tumor growth was monitored twice a week using digital calipers and the tumor volume (TV) was calculated using the formula (0.52×[length×width^2]). When the TV reached an average volume of 150-300 mm^3, animals were matched by tumor size and assigned into Vehicle Control and treatment groups (n=2/group) and dosing was initiated on Day 0. After the initiation of dosing on Day 0, animals were weighed twice per week using a digital scale and TV was measured twice per week and also on the final day of study. The study was completed when the mean tumor volume of Vehicle Control reached 1500 mm^3 or up to Day 60, whichever occurred first.
(§5) Beginning on Day 0, animals were observed daily and weighed twice weekly using a digital scale; data including individual and mean gram weights, mean percent weight change versus Day 0 (% vD0) were recorded for each group and % vD0 plotted at study completion. […] Treatment resulting in a mean % vD0>20% and/or >10% mortality was considered above the maximum tolerated dose. Maximum mean % vD0 (weight nadir) for each treatment group was reported at study completion.
(§6) Inhibition of tumor growth was determined by calculating the percent TGI (100%×[1−(final MTV−initial MTV of a treated group)/(final MTV−initial MTV of the control group)]). Treatment started on Day 0.
(§7) Additional endpoints used to evaluate efficacy were: the number of complete responders (CR), partial responders (PR), and tumor-free survivors (TFS). PRs were considered exclusive of CRs, as were TFS.
(§8) Statistical analyses of anti-tumor efficacy were performed using one-way ANOVA followed by Dunnett's multiple comparisons test (GraphPad Prism version 8.2.0). Significant p-values=<0.05.
Animals were dosed according to the schedule on Table 7-1. The Vehicle Control reached endpoint on Day 18 and the study was terminated on Day 28.

CTG-0808 = assay: Champions TumorGraft NSCLC PDX efficacy, model CTG-0808
Description: as §1, §2, §3, §4, §5, §6, §7, §8
Animals were dosed according to the schedule on Table 7-1. The Vehicle Control reached endpoint on Day 14 and the study was terminated on Day 28.

CTG-1212 = assay: Champions TumorGraft NSCLC PDX efficacy, model CTG-1212
Description: as §1, §2, §3, §4, §5, §6, §7, §8
Animals were dosed according to the schedule on Table 7-1. The study was terminated on Day 27.

CTG-0178 = assay: Champions TumorGraft NSCLC PDX efficacy, model CTG-0178
Description: as §1, §2, §3, §4, §5, §6, §7, §8
(§9) Animals were dosed according to the schedule on Table 7-1. The study was terminated on Day 28.

CTG-0170 = assay: Champions TumorGraft NSCLC PDX efficacy, model CTG-0170
Description: as §1, §2, §3, §4, §5, §6, §7, §8
Animals were dosed according to the schedule on Table 7-1. The Vehicle Control group reached endpoint of average tumor volume >1500 mm^3 on Day 14 and was removed from the study. The study was terminated on Day 28. […] Therefore, the tumor volumes on Day 11 were used for analysis of anti-tumor activity in order to include all animals.

CTG-2393 = assay: Champions TumorGraft NSCLC PDX efficacy, model CTG-2393
Description: as §1, §2, §3, §4, §5, §6, §7, §8, §9

[1] = CTG-2011, 3 mg/kg IV Q7Dx4, Day 0-28
[2] = CTG-0808, 3 mg/kg IV Q7Dx4, Day 0-28
[3] = CTG-1212, 3 mg/kg IV Q7Dx4, Day 0-27
[4] = CTG-0178, 3 mg/kg IV Q7Dx4, Day 0-28
[5] = CTG-0170, 3 mg/kg IV Q7Dx4, Day 0-28
[6] = CTG-2393, 3 mg/kg IV Q7Dx4, Day 0-28

For `CC[C@H](C)[C@@H]([C@@H](CC(=O)N1CCC[C@H]1[C@H](OC)[C@@H](C)C(=O)N[C@H](C)[C@@H](O)c1ccccc1)OC)N(C)C(=O)[C@@H](NC(=O)[C@H](C(C)C)N(C)C(=O)OCc1ccc(NC(=O)[C@H](CCCNC(N)=O)NC(=O)[C@@H](NC(=O)CCCC(=O)ON2C(=O)CCC2=O)C(C)C)cc1)C(C)C` [BT5528] (X1-V[Cit][PABC][NMeV]V[Dil][Dolaproine]-X2), the “MTV (mean tumor volume)” value (CTG-2011; 3 mg/kg IV Q7Dx4, Day 18) was 826±48 mm^3, the TGI (CTG-2011; 3 mg/kg IV Q7Dx4, Day 18) was 57% and the “# CR (complete responders)” value (CTG-2011; [1]) was 0 /0/0. The “# PR (partial responders)” value (CTG-2011; [1]) was 0 /0/0, the “# TFS (tumor-free survivors)” value (CTG-2011; [1]) was 0 /0/0 and the “% TGI” value (CTG-2011; CTG-2011, 3 mg/kg IV Q7Dx4, Day 18) was 57%. For the same molecule, the “Day 18 Tumor Volume Mean TV ± SEM” value (CTG-2011; CTG-2011, BT5528 3 mg/kg IV Q7Dx4, Day 18, n=2) was 826 ± 48 mm^3, the “MTV (mean tumor volume)” value (CTG-0808; 3 mg/kg IV Q7Dx4, Day 14) was 541±4 mm^3 and the TGI (CTG-0808; 3 mg/kg IV Q7Dx4, Day 14) was 76%. For the same molecule, the “# CR (complete responders)” value (CTG-0808; [2]) was 0/0/0, the “# PR (partial responders)” value (CTG-0808; [2]) was 0/0/0 and the “# TFS (tumor-free survivors)” value (CTG-0808; [2]) was 0/0/0. The “% TGI” value (CTG-0808; CTG-0808, 3 mg/kg IV Q7Dx4, Day 14) was 76%, the “Day 14 Tumor Volume Mean TV ± SEM” value (CTG-0808; CTG-0808, BT5528 3 mg/kg IV Q7Dx4, Day 14, n=2) was 541 ± 4 mm^3 and the “mean body weight loss” value (CTG-1212; 3 mg/kg IV Q7Dx4) was “minor mean body weight losses”. The “MTV (mean tumor volume)” value (CTG-1212; 3 mg/kg IV Q7Dx4, Day 27) was 128±53 mm^3, the TGI (CTG-1212; 3 mg/kg IV Q7Dx4, Day 27) was 112% and the “# CR (complete responders)” value (CTG-1212; [3]) was 0/0/0. For the same molecule, the “# PR (partial responders)” value (CTG-1212; [3]) was 0/0/0, the “# TFS (tumor-free survivors)” value (CTG-1212; [3]) was 0/0/0 and the “% TGI” value (CTG-1212; CTG-1212, 3 mg/kg IV Q7Dx4, Day 27) was 112%. For the same molecule, the “Day 27 Tumor Volume Mean TV ± SEM” value (CTG-1212; CTG-1212, BT5528 3 mg/kg IV Q7Dx4, Day 27, n=2) was 128 ± 53 mm^3, the “mean body weight loss” value (CTG-0178; 3 mg/kg IV Q7Dx4) was “minor mean body weight losses on Day 18” and the “MTV (mean tumor volume)” value (CTG-0178; 3 mg/kg IV Q7Dx4, Day 28) was 1145±271 mm^3. The TGI (CTG-0178; 3 mg/kg IV Q7Dx4, Day 28) was 16%, the “# CR (complete responders)” value (CTG-0178; [4]) was 0/0/0 and the “# PR (partial responders)” value (CTG-0178; [4]) was 0/0/0. The “# TFS (tumor-free survivors)” value (CTG-0178; [4]) was 0/0/0, the “% TGI” value (CTG-0178; CTG-0178, 3 mg/kg IV Q7Dx4, Day 28) was 16% and the “Day 28 Tumor Volume Mean TV ± SEM” value (CTG-0178; CTG-0178, BT5528 3 mg/kg IV Q7Dx4, Day 28, n=2) was 1145 ± 271 mm^3. The “body weight and tolerability of the other animal in the group” value (CTG-0170; 3 mg/kg IV Q7Dx4) was “no body weight loss and tolerated the BT5528 well”, the “prior body weight loss of the animal found dead on Day 14” value (CTG-0170; 3 mg/kg IV Q7Dx4) was 24.8% and the “MTV (mean tumor volume)” value (CTG-0170; 3 mg/kg IV Q7Dx4, Day 11) was 268±15 mm^3. The TGI (CTG-0170; 3 mg/kg IV Q7Dx4, Day 11) was 94%, the animals found dead (CTG-0170; 3 mg/kg IV Q7Dx4, n=2, cause of death unknown) was “one animal in the BT5528 group was found dead on Day 14” and the “# CR (complete responders)” value (CTG-0170; [5]) was 0/0/0. For the same molecule, the “# PR (partial responders)” value (CTG-0170; [5]) was 0/0/0, the “# TFS (tumor-free survivors)” value (CTG-0170; [5]) was 0/0/0 and the “% TGI” value (CTG-0170; CTG-0170, 3 mg/kg IV Q7Dx4, Day 11) was 94%. The “Day 11 Tumor Volume Mean TV ± SEM” value (CTG-0170; CTG-0170, BT5528 3 mg/kg IV Q7Dx4, Day 11, n=2) was 268 ± 15 mm^3, the “MTV (mean tumor volume)” value (CTG-2393; 3 mg/kg IV Q7Dx4, Day 28) was 158±25 mm^3 and the TGI (CTG-2393; 3 mg/kg IV Q7Dx4, Day 28) was 107%. For the same molecule, the “# CR (complete responders)” value (CTG-2393; [6]) was 0/0/0, the “# PR (partial responders)” value (CTG-2393; [6]) was 0/0/0 and the “# TFS (tumor-free survivors)” value (CTG-2393; [6]) was 0/0/0. For the same molecule, the “% TGI” value (CTG-2393; CTG-2393, 3 mg/kg IV Q7Dx4, Day 28) was 107% and the “Day 28 Tumor Volume Mean TV ± SEM” value (CTG-2393; CTG-2393, BT5528 3 mg/kg IV Q7Dx4, Day 28, n=2) was 158 ± 25 mm^3.
